Legend:
[1] = tested on: endogenous whole-endolysosome TRPML-like current (IML-L); conditions: cited from earlier work
[2] = target: T1, endogenous whole-endolysosome TRPML-like current (IML-L) (Homo sapiens, UniProt Q9GZU1); conditions: wild-type (WT; ML1+/+) human fibroblasts; cited from earlier work
T1 construct: host or cells: endogenous in human fibroblasts (WT and ML4); also CHO, Cos-1, HEK293, skeletal muscle, pancreatic β and macrophage cells

TRPMLs = conditions: cited from earlier work
TRPML2 = target: T2, TRPML2 (Homo sapiens, UniProt Q8IZK6); conditions: cited from earlier work
T2 sequence (Q8IZK6 1-566): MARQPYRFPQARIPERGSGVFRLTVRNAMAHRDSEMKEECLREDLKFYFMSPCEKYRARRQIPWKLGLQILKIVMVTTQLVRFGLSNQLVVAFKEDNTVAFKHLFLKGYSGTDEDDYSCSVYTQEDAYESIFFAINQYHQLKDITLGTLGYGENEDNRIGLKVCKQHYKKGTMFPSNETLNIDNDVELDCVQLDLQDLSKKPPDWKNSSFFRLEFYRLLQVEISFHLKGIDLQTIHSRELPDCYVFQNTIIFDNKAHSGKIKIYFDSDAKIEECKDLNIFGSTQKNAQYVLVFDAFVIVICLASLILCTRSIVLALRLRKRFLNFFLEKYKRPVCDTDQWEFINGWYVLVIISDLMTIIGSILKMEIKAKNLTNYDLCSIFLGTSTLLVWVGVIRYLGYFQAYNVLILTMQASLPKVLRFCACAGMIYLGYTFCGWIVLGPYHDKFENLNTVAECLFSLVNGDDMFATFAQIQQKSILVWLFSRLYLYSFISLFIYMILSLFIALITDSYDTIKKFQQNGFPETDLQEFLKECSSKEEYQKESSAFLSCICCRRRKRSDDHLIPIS

ML1-4A = conditions: HEK293 cells stably or transiently expressing ML1-4A; cited from earlier work
[3] = tested on: six other related channels; conditions: cited from earlier work
TRPML1 = conditions: cited from earlier work
TRPML3 = target: T3, TRPML3 (Homo sapiens, UniProt Q8TDD5); conditions: cited from earlier work
T3 sequence (Q8TDD5 1-553): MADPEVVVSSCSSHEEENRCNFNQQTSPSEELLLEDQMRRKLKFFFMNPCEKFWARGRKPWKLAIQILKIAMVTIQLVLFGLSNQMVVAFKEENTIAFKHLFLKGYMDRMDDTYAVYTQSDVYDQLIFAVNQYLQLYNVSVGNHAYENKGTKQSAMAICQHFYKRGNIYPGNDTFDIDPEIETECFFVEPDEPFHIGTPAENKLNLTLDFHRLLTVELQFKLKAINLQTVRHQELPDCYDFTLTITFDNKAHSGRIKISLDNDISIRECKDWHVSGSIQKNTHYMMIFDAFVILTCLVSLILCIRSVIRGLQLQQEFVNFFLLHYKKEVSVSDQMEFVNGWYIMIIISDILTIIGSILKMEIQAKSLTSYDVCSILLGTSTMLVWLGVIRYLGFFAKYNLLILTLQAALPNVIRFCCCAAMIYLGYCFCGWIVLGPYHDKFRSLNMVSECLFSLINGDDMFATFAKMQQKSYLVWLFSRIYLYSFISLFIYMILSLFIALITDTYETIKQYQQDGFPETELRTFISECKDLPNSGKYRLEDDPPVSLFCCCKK

TFEB = TFEB nuclear translocation assay; type: cell-based; conditions: HEK293 cells stably expressing GFP-TFEB; dose-dependent, FIG. 2
Experimental: TFEB is a transcription factor and master regulator of lysosome biogenesis and autophagy. TFEB activation is shown to induce cellular clearance in a variety of LSDs and common neurodegenerative diseases.
Intracellular TFEB localization is determined either by immunofluorescence in Hela cells or by fluorescent microscopy in Hela cells stably expressing TFEB-GFP. Detailed procedures are as follows.
Cells grown on cover slips were treated with TRPML1 agonist(s) or antagonist(s) for indicated time period and then fixed with 4% paraformaldehyde for 15 minutes at room temperature. For immunofluorescent detection of endogenous TFEB, cells were permeabilized with 0.3% Triton X-100, blocked with 1% bovine serum albumin (BSA) in phosphate buffered saline (PBS) and then immunostained with anti-TFEB antibody (1:200; Cell Signaling Technology) at 4° C. for overnight. The stained cells were then incubated with secondary antibodies conjugated to Alexa Fluor 568 or 488 (ThermoFisher) for 1 h, then 4′,6-diamidino-2-phenylindole (DAPI) for 15 minutes (to stain the cell nucleus) and mounted on glass slides with Fluoromount-G (Southern Biotech) for observation. […]
Average ratios of nuclear versus cytosolic TFEB fluorescence intensity (>50 randomly-selected cells per experiment) were determined with ImageJ software (NIH).

HaCat cells = test: UV treatment and ROS staining; type: cell-based, human; conditions: 600 J/m^2 UV (254 nm), H2DCFDA, FIG. 3
Experimental: HaCat cells (a human keratinocyte cell line) at a confluency of around 50% were incubated with 20 µM H2DCFDA (Sigma) in the culture media without FBS at 37° C. for 30 min, and then washed twice with phosphate buffered saline (PBS, pH 7.4) before being exposed to UV. A CL-1000 UV Crosslinker (UVP) is used to shed 600 J/m^2 of UV light (254 nm) on the HaCat cells in all experiments. Fluorescent images were obtained right after UV exposure, via an Olympus IX73 microscopy (Olympus) and Metamorph software (Molecular Devices).

T1 sequence (Q9GZU1 whole entry): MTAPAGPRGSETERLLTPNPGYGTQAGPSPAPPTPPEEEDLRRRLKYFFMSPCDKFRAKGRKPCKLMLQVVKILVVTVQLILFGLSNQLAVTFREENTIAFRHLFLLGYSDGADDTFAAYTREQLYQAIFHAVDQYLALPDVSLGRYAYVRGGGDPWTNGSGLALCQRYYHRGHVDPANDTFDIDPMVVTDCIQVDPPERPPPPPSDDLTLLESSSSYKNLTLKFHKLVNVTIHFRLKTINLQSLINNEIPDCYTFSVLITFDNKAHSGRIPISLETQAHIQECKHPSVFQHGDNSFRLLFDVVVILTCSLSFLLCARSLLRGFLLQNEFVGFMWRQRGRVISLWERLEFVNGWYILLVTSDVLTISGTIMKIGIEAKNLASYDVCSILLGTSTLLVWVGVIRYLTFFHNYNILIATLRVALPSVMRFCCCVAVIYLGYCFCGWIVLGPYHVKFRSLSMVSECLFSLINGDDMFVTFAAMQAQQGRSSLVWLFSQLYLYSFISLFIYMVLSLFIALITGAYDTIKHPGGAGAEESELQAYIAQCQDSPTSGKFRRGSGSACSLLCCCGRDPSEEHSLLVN

SMILES	activation of whole-endolysosome IML-L ([1]; ML4 (ML1−/−) human fibroblasts)	activation of endogenous whole-endolysosome IML-L ([1]; all mammalian cell types investigated (CHO, Cos-1, HEK293, skeletal muscle, pancreatic β, macrophage cells))	activation of whole-endolysosome IML-L [2]	concentration needed to effectively activate TRPMLs (TRPMLs) [µM]	activation of whole-cell ITRPML2 (TRPML2)	[Ca2+]cyt increases (ML1-4A)	activation of six other related channels [3]	activation of whole-endolysosome IML1 compared with PI(3,5)P2 (1 μM) (TRPML1; ML-SA1 10 μM)	activation of whole-cell IML1-4A (TRPML1; whole-cell)	activation of whole-endolysosome IML1 (TRPML1; whole-endolysosome)	activation of whole-cell ITRPML3 (TRPML3)	TFEB-nuclear translocation (nuclear to cytosol ratio) (TFEB)	UV induced ROS (HaCat cells)
CC1CC(C)(C)N(C(=O)CN2C(=O)c3ccccc3C2=O)c2ccccc21 (stereo not shown) [ML-SA1]	not	activated	activated	~10	activated	significant	not	comparable	robustly activated	robustly activated	activated		
CN(C)S(=O)(=O)c1ccc(S(=O)(=O)Nc2ccccc2N2CCN(c3ccc(Cl)cc3F)CC2)cc1 [Example 8, N1-[2-[4-(4-Chloro-2-fluorophenyl)-1-piperazinyl]phenyl]-N4,N4-dimethylbenzene-1,4-disulfonamide]												sufficient to induce TFEB-nuclear translocation	significantly reduced

— patent publication US10851084B2, “Piperazine derivatives as TRPML modulators” (CalyGene Biotechnology, Inc., priority 2016, dated 2020)
